# Test: Inhibition of C-terminal FLAG-His-tagged full length human CTPS1 measured after 60 mins by ADP-Glo assay
row,SMILES,IC50
1,CCC(C(=O)Nc1ccc(-c2cncc(Cl)n2)cc1)c1ccnc(NS(=O)(=O)C2CC2)n1 (stereo not given),> 100 nM
2,CCC(C(=O)Nc1ccc(-c2cncc(OCC(F)(F)F)c2)cc1F)c1ccnc(NS(=O)(=O)C2CC2)n1 (stereo not given),> 100 nM
3,CC(C(=O)Nc1ccc(-c2cccnc2)cc1)c1ccnc(NS(=O)(=O)C2CC2)n1 (stereo not given),> 100 nM
4,CCC(C(=O)Nc1ccc(-c2cnccn2)cc1)c1ccnc(NS(=O)(=O)C2CC2)n1 (stereo not given),> 100 nM
5,CCC(C(=O)Nc1ccc(-c2cncc(C(F)(F)F)n2)cc1)c1ccnc(NS(=O)(=O)C2CC2)n1 (stereo not given),> 100 nM
6,CCC(C(=O)Nc1ccc(-c2cncc(OCC(F)(F)F)c2)cc1)c1ccnc(NS(=O)(=O)C2CC2)n1 (stereo not given),> 100 nM
7,CCC(C(=O)Nc1ccc(-c2cccnc2)cc1F)c1ccnc(NS(=O)(=O)C2CC2)n1 (stereo not given),> 1000 nM
8,CCC(C(=O)Nc1ccc(-c2cncc(C#N)c2)cc1)c1ccnc(NS(=O)(=O)C2CC2)n1 (stereo not given),> 100 nM
9,CCC(C(=O)Nc1ccc(-c2cccnc2)cc1)c1ccnc(NS(=O)(=O)C2CC2)n1 (stereo not given),> 100 nM
10,CCC(C(=O)Nc1ccc(-c2cncc(Cl)c2)cc1F)c1ccnc(NS(=O)(=O)C2CC2)n1 (stereo not given),> 100 nM
11,CCC(C(=O)Nc1ccc(-c2cncc(OC(C)C)c2)cc1)c1ccnc(NS(=O)(=O)C2CC2)n1 (stereo not given),> 100 nM
12,CCC(C(=O)Nc1ccc(-c2cncc(OC(C)C)c2)cc1F)c1ccnc(NS(=O)(=O)C2CC2)n1 (stereo not given),> 100 nM

# Second part, the molecule after the results:
row,IC50,SMILES
1,≤ 100 nM,CCC(C(=O)Nc1ccc(-c2cncc(OC)n2)cc1F)c1ccnc(NS(=O)(=O)C2CC2)n1 (stereo not given)
2,≤ 100 nM,CCC(C(=O)Nc1ccc(-c2cncc(OCC(F)(F)F)n2)cc1)c1ccnc(NS(=O)(=O)C2CC2)n1 (stereo not given)
3,≤ 100 nM,CCC(C(=O)Nc1ccc(-c2cncc(C(F)(F)F)n2)cn1)c1ccnc(NS(=O)(=O)C2CC2)n1 (stereo not given)
4,≤ 100 nM,CCOc1cncc(-c2ccc(NC(=O)C(CCOC)c3ccnc(NS(=O)(=O)C4CC4)n3)cc2)n1 (stereo not given)
5,≤ 100 nM,CCC(C(=O)Nc1ccc(-c2cncc(C(F)(F)F)n2)cc1F)c1ccnc(NS(=O)(=O)C2CC2)n1 (stereo not given)
6,≤ 100 nM,CCC(C(=O)Nc1ccc(-c2cncc(OC)n2)cc1)c1ccnc(NS(=O)(=O)C2CC2)n1 (stereo not given)
7,≤ 100 nM,CCOc1cncc(-c2ccc(NC(=O)C(CC)c3ccnc(NS(=O)(=O)C4CC4)n3)nc2)n1 (stereo not given)
8,≤ 100 nM,CCC(C(=O)Nc1ccc(-c2cncc(OC(C)C)n2)cn1)c1ccnc(NS(=O)(=O)C2CC2)n1 (stereo not given)
9,≤ 100 nM,CCOc1cncc(-c2ccc(NC(=O)C(CC)c3ccnc(NS(=O)(=O)C4CC4)n3)c(F)c2)n1 (stereo not given)
10,≤ 100 nM,CCC(C(=O)Nc1ccc(-c2cncc(OCC(F)(F)F)n2)cc1F)c1ccnc(NS(=O)(=O)C2CC2)n1 (stereo not given)
11,≤ 100 nM,CCC(C(=O)Nc1ccc(-c2cncc(OC(C)C)n2)cc1)c1ccnc(NS(=O)(=O)C2CC2)n1 (stereo not given)
12,≤ 100 nM,CCOc1cncc(-c2ccc(NC(=O)C(CC)c3ccnc(NS(=O)(=O)C4CC4)n3)cc2)n1 (stereo not given)
13,≤ 100 nM,CCC(C(=O)Nc1ccc(-c2cncc(OC(C)C)n2)cc1F)c1ccnc(NS(=O)(=O)C2CC2)n1 (stereo not given)
